# Measured values published in patent publication US20070114186A1 (priority 2003, published 2007).
# Test system: pseudomonas & other pathogens
compound,measurement,value
[Zn] [zinc],kills pseudomonas & other pathogens,kills pseudomonas & other pathogens
